17 compounds from PubChem BioAssay (NCI) can be followed below.

Test systems include DU-145 prostate; M14 melanoma; MCF7 breast; OVCAR-8 ovarian; RXF 393 renal; SF-295 CNS; SW-620 colon; U251 CNS; HL-60(TB) leukemia; SF-539 CNS.
Holding throughout (assay): inhibition of tumour cell growth, NCI panel, 48 h

The structures appear in SMILES notation. Several values for one entry are separate records, joined by “and”; a condition that tells them apart may be missing. Equal entries are not always repeated.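 Assay format: 96-well plates, 48-hour exposure. The concentration for 50% growth inhibition is given as GI50. TGI: total growth inhibition.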

Regarding `C/C=C\C(CC(=O)NCCC1CN(C(=O)c2ccccc2)c2ccccc21)CC(=O)OC` (stereo not given), the TGI in the test with DU-145 prostate, in the test with M14 melanoma, in the test with MCF7 breast, in the test with OVCAR-8 ovarian, in the test with RXF 393 renal and in the test with SF-295 CNS was more than 100 µM each time. Further, the TGI with SW-620 colon and with U251 CNS was more than 100 µM in each case.

For the compound `COc1cc(C2S/C(=C/c3ccccc3)C(=O)N2c2cccc([N+](=O)[O-])c2)cc(OC)c1OC` (stereo not given), the TGI with M14 melanoma, in the test on MCF7 breast, in the test on OVCAR-8 ovarian, in the test on SF-295 CNS and in the test on U251 CNS was more than 100 µM throughout.

Regarding `CC(C)CCC[C@@H](C)[C@H]1CCC2C3=CCC4C(=O)C=CC(=O)C4C3CC[C@@]21C` (stereo not given in full), the GI50 is 0.507 µM in the test on DU-145 prostate, 0.27 µM in the test with HL-60(TB) leukemia, 0.0726 µM in the test on OVCAR-8 ovarian and 0.172 µM in the test with SF-295 CNS. The TGI in the test with DU-145 prostate was more than 100 µM; in the test on HL-60(TB) leukemia, more than 100 µM; in the test with SF-295 CNS it was 0.576 µM.

For `COc1cc(-c2nc3nc(N4CCN(C)CC4)ccc3[nH]2)c(OC)c2[nH]c(COC(C)=O)nc12`, the TGI in the test on DU-145 prostate was more than 100 µM; with M14 melanoma, 34.4 µM; with MCF7 breast, 43.9 µM; with OVCAR-8 ovarian it was more than 100 µM; in the test on RXF 393 renal, 86.7 µM; in the test on SF-295 CNS it was more than 100 µM. Besides, the TGI is 35.4 µM in the test on SF-539 CNS, more than 100 µM with SW-620 colon and 46.5 µM in the test on U251 CNS.

As to `COC(=O)n1c(CBr)c(Br)c2ccccc21`, the TGI was 59.8 µM in the test on HL-60(TB) leukemia; more than 100 µM with M14 melanoma; more than 100 µM in the test on OVCAR-8 ovarian; 69.9 µM with SF-295 CNS; more than 100 µM in the test on SF-539 CNS; more than 100 µM in the test with SW-620 colon. Further, in the test with U251 CNS, the TGI came to 82.4 µM.

Regarding `O=c1[nH]c2ccccc2c2oc(-c3ccccc3)nc12`, the TGI in the test with M14 melanoma is more than 100 µM; in the test on MCF7 breast, more than 100 µM; with OVCAR-8 ovarian, 59.1 µM; in the test on RXF 393 renal it was 44 µM; in the test on SF-295 CNS, 57.6 µM; with SF-539 CNS, more than 100 µM. Further, the results for the TGI in the test with SW-620 colon and in the test on U251 CNS were 58.1 µM and 60.8 µM, respectively.

Consider `Cn1ccc(C(=O)NCCCCCNC(=O)c2ccn(C)c(=O)c2O)c(O)c1=O`, for which the TGI in the test with DU-145 prostate, in the test on HL-60(TB) leukemia, with OVCAR-8 ovarian, in the test on SW-620 colon and in the test on U251 CNS was more than 100 µM each time.

Regarding `O=C(/C=C/c1ccccc1O)/C=C/c1ccccc1O`, the TGI in the test with DU-145 prostate came to 3.2 µM; in the test on HL-60(TB) leukemia it was 7.62 µM; with M14 melanoma, 3.55 µM; in the test with OVCAR-8 ovarian it was 5.08 µM; with SF-295 CNS it was 3.89 µM; with SF-539 CNS, 3.57 µM. Further, the results for the TGI in the test with SW-620 colon and in the test on U251 CNS were 4.36 µM and 2.89 µM, respectively.

In the case of `CN(C)CC(NC(NCS)C(=O)NCCNc1ccc(NCCNC(=O)C(NCS)NC(CN(C)C)OCCl)c2c1C(=O)c1c(O)ccc(O)c1C2=O)OCCl` (stereo not given), the GI50 is 0.0162 µM in the test on DU-145 prostate, 0.506 µM in the test with M14 melanoma and 0.0436 µM in the test on OVCAR-8 ovarian. Besides, the TGI with DU-145 prostate is 0.977 µM and 0.287 µM; in the test with SF-295 CNS it was 1.39 µM; in the test with SW-620 colon it was 1.25 µM; in the test with U251 CNS it was 0.0575 µM.

For the compound `CN1CC2CC(C1)c1cccc(=O)n1C2` (stereo not given), the TGI in the test with DU-145 prostate, with M14 melanoma, in the test on MCF7 breast, in the test with OVCAR-8 ovarian, in the test on RXF 393 renal and in the test with SF-295 CNS was more than 100 µM in each case. This compound gave a TGI in the test on U251 CNS of more than 100 µM.

Consider `N#Cc1nc(/C=C/c2ccccc2)oc1N`, for which the TGI with DU-145 prostate, in the test with M14 melanoma, in the test on MCF7 breast, in the test with OVCAR-8 ovarian, in the test with RXF 393 renal and with SF-295 CNS was more than 100 µM each time. The TGI in the test on SF-539 CNS, in the test on SW-620 colon and in the test on U251 CNS was more than 100 µM each time.

Consider `c1ccc(C2=C(c3ccccc3)P(c3ccccc3)C2)cc1` (stereo not given), for which the TGI with DU-145 prostate, in the test with M14 melanoma, in the test with MCF7 breast, with OVCAR-8 ovarian, with RXF 393 renal and in the test with SF-295 CNS was more than 100 µM throughout. The TGI in the test with SF-539 CNS, with SW-620 colon and with U251 CNS was more than 100 µM in each case.

As for `CC(C)CCC/C(CBr)=C(\Cl)CCl`, the TGI in the test on DU-145 prostate came to 17.2 µM; in the test on M14 melanoma it was 4.23 µM; in the test on MCF7 breast it was 12.9 µM; in the test with OVCAR-8 ovarian, 3.86 µM; with RXF 393 renal, 8.17 µM; with SF-295 CNS, 26.5 µM. Besides, the TGI in the test on SF-539 CNS stood at 23.6 µM; in the test on SW-620 colon, 3.07 µM; in the test on U251 CNS, 13.4 µM.

In the case of `COc1ccc2c(c1)-c1oc3ccccc3c(=O)c1CO2`, the TGI in the test on DU-145 prostate, with M14 melanoma, in the test on MCF7 breast, in the test on OVCAR-8 ovarian, in the test on SF-295 CNS and in the test with SF-539 CNS was more than 100 µM each time. Also, the TGI in the test with SW-620 colon and in the test with U251 CNS was more than 100 µM in each case.

As to `CC(C)C1=CC23CCC4C(C)(C(=O)O)CCCC4(C)C2CC1C(C(=O)O)C3C(=O)O` (stereo not given), the TGI in the test on DU-145 prostate, in the test with M14 melanoma, in the test on OVCAR-8 ovarian, in the test on RXF 393 renal, in the test with SF-295 CNS and in the test with SW-620 colon was more than 100 µM in each case. For the same compound, the TGI in the test on U251 CNS is more than 100 µM.

Consider `N#Cc1c(N2CCN(c3ccc([N+](=O)[O-])cc3)CC2)[n+](=O)c2ccc(Cl)cc2n1[O-]`, for which the TGI is 6.7 µM with DU-145 prostate; more than 23.4 µM in the test with M14 melanoma; more than 33.3 µM with MCF7 breast; more than 22.9 µM in the test on OVCAR-8 ovarian; more than 22.7 µM with RXF 393 renal; more than 28.3 µM in the test with SF-295 CNS. The TGI in the test with SF-539 CNS worked out at 4.37 µM; in the test on SW-620 colon it was 1.81 µM; with U251 CNS it was 5.81 µM.

Regarding `CCOC12SC(=Nc3ccc(C)cc3)NN1C(=S)N(C)N=C2C` (stereo not given), the TGI in the test with HL-60(TB) leukemia, in the test on M14 melanoma, with OVCAR-8 ovarian, in the test with RXF 393 renal, with SF-295 CNS and in the test on SF-539 CNS was more than 100 µM throughout. For the same compound, the TGI in the test with SW-620 colon and in the test on U251 CNS was more than 100 µM each time.
